According to US20080268072A1, “Method of Improving Anticancer Effect of Pulsatillae Radix and a Composition Prepared by the Method” (Song-Bae Kim, priority 2004, published 2008):

Experiments:
tumor = experiment: Antitumor activity (test not specified)
LL/2 cancer = settings: BDF1 mouse; cited from earlier work
NCI-H23 cell line = settings: comparison with adriamicine; cited from earlier work

Molecule	antitumor activity (tumor)	inhibition effect against LL/2 cancer (LL/2 cancer) [%]	activity against NCI-H23 cell line compared with adriamicine (NCI-H23 cell line)
3-0-[0-α-L-rhamnopyranosyl-(1→2)-[0-β-D-glucopyranosyl-(1→4)]-α-L-arabinopyranosyl]hederagenin 28-0-α-L-rhamnopyranosyl-(1→4-[0-β-D-glucopyranosyl-(1→6]-β-D-glucopyranosyl ester [SB 365-0]	no antitumor activity	–	–
CC1OC(OC2C(O[C@H]3CC[C@@]4(C)C(CC[C@]5(C)C4CC=C4C6CC(C)(C)CC[C@]6(C(=O)O)CC[C@]45C)[C@]3(C)CO)OCC(OC3OC(CO)C(O)C(O)C3O)C2O)C(O)C(O)C1O (stereo partly drawn) [SB365, 3-0-[0-α-L-rhamnopyranosyl-(1→2)-[0-β-D-glucopyranosyl-(1→4)]-α-L-arabinopyranosyl]hederagenin]	–	80	more strong activity
